Laboratory results reported in US20040143021A1, “Compositions and methods for improving recovery after general anesthesia” (priority 2003, published 2004).

Columns and labels:
[1] = test system: patients scheduled for same day surgery under general anesthesia; assay: Randomized, double blind, parallel group clinical study of modafinil vs placebo on recovery after general anesthesia (symptom evaluation by verbal analog scale); format: in vivo; conditions: for Appetite, verbal analog score, mean (SD) / Ease of sleep, verbal analog score, mean (SD) / Energy, verbal analog score, mean (SD) / Exhaustion, verbal analog score, mean (SD) / Fatigue, verbal analog score, mean (SD) / Nausea, verbal analog score, mean (SD) / Reading ability, verbal analog score, mean (SD) / Restless, verbal analog score, mean (SD) / Tense, verbal analog score, mean (SD) / Worn out, verbal analog score, mean (SD): VAS 0 to 10; for Operative distress, point value: total of 60 possible points
Text: Informed consents were obtained from patients scheduled to undergo outpatient surgical procedures under general anesthesia to participate in this prospective study approved by an institutional review board. In this study, the clinical activity of modafinil to improve recovery post-anesthesia was examined in a randomized, double blind, parallel group study. Thirty-four (34) patients scheduled for same day surgery under general anesthesia participated in this prospective study. Patients were American Society of Anesthesiology physical status I-II, with a Body-Mass-Index <40 without any known significant renal, hepatic, cardiovascular, neurological, gastrointestinal, endocrine, hematologic, or pulmonary diseases as judged by the investigator. A history of epilepsy, alcoholism, or chronic use of opioids also excluded the patients from participation in this study. Patients were asked to rate various symptoms they had experienced over the previous 24-hour period using a verbal analog scale (VAS) rating of 0 to 10, as well as discrete scores when indicated. The symptom evaluation included headache, dizziness, level of energy, appetite, nausea, pain, vomiting, degree of being tense, clear-headedness, restlessness, fatigue, exhaustion, quality of sleep during the previous night, need for the help from a caregiver, the ability to read, comprehend, and communicate.
Anesthetic management of the patients was at the discretion of the attending anesthesiologist. Patients were monitored post-operatively, and cared for according to institutional standards. Once the patient was able to tolerate oral intake of liquids, the study drug (modafinil, 200 mg) or placebo was administered, randomly, with a sip of water. Patients were discharged according to institutional standards. Patients were contacted 24 (+1) hours after dosing for symptom evaluation and the same questions were asked. Patients were also asked whether the study drug they received had any beneficial effect. If the patient felt they received a benefit from the study drug they were asked to describe the benefit in their own words.
The study group included 24 female and 10 male patients (n=17 per group). The demographics of the groups are shown below in Table 1. There were no significant differences in age, height, weight, or gender distribution between the two groups.
Almost all patients had received the same type of anesthetic management including propofol, a narcotic, a volatile agent, a muscle relaxant, nitrous oxide, and oxygen. Patients had undergone mostly orthopedic or gynecological surgical procedures. Surgical procedures or the exact doses of anesthetics were not compared between the groups.
There were no significant differences in preoperative symptoms reported between the two groups (modafinil versus placebo; Table 2). As expected, patients were tenser, more restless, and less relaxed pre-operatively (in both groups). […] Operative distress was defined as a lack of energy, presence of feeling worn out, fatigue, exhaustion, mental clouding, and problem reading (comprehending) (total of 60 possible points to define the most severe Operative distress). In the modafinil group, the point value for operative distress was 10.5±6.0, preoperatively, increasing to 11.3±9.1, postoperatively. The corresponding values for operative distress in the placebo group were 13.4±11.9, pre-operatively, and 21.0±13.8, post-operatively.

sleep-deprived pilots = conditions: in vivo; cited from earlier work
[2] = test system: patients with excessive daytime sleepiness associated with narcolepsy; conditions: clinical trials, 200 mg/d and 400 mg/d; cited from earlier work
[3] = post-operative minus pre-operative, modafinil 200 mg
[4] = post-operative, 24 h after modafinil 200 mg oral, n = 17
[5] = pre-operative (before dosing), n = 17
[6] = share of patients, modafinil 200 mg, n = 17

SMILES: NC(=O)C[S+]([O-])C(c1ccccc1)c1ccccc1 (stereo not drawn) [Modafinil]
- Patients expressing themes of "alertness" and "energy" as benefit of study drug ([1]; content analysis of comments, modafinil group, p<0.05 vs 18% placebo): 71%
- Exhaustion postoperatively compared with placebo ([1]; modafinil 200 mg vs placebo): significantly less exhausted
- Fatigue postoperatively compared with placebo ([1]; modafinil 200 mg vs placebo): significantly less fatigue
- Feeling worn out postoperatively compared with placebo ([1]; modafinil 200 mg vs placebo): significantly less worn out
- Feelings of alertness and energy in patients recovering from general anesthesia ([1]; modafinil 200 mg vs placebo): significantly improved feelings of alertness, and energy
- Post-operative distress compared with placebo ([1]; modafinil 200 mg vs placebo): significantly less post-operative distress
- Patients complaining of not being able to fall asleep at night ([1]; modafinil group (n = 17), four in placebo group): one
- Patients complaining of moderate-to-severe fatigue ([1]; modafinil treatment group vs 65% placebo): 12%
- Appetite, verbal analog score, difference [1, 3]: −1.8
- Ease of sleep, verbal analog score, difference [1, 3]: −0.3
- Energy, verbal analog score, difference [1, 3]: −1.3
- Exhaustion, verbal analog score, difference [1, 3]: 0.2
- Fatigue, verbal analog score, difference [1, 3]: −0.2
- Nausea, verbal analog score, difference [1, 3]: 1.3
- Reading ability, verbal analog score, difference [1, 3]: 0.2
- Restless, verbal analog score, difference [1, 3]: −2.0
- Tense, verbal analog score, difference [1, 3]: −3.2
- Worn out, verbal analog score, difference [1, 3]: −0.6
- Appetite, verbal analog score, mean (SD) [1, 4]: 6.1 (3.8)
- Ease of sleep, verbal analog score, mean (SD) [1, 4]: 6.2 (3.6)
- Energy, verbal analog score, mean (SD) [1, 4]: 6.2 (3.5)
- Exhaustion, verbal analog score, mean (SD) [1, 4]: 2.4 (3.1)
- Fatigue, verbal analog score, mean (SD) [1, 4]: 1.4 (1.8)
- Nausea, verbal analog score, mean (SD) [1, 4]: 1.9 (3.5)
- Reading ability, verbal analog score, mean (SD) [1, 4]: 9.2 (1.6)
- Restless, verbal analog score, mean (SD) [1, 4]: 2.5 (3.0)
- Tense, verbal analog score, mean (SD) [1, 4]: 2.2 (3.2)
- Worn out, verbal analog score, mean (SD) [1, 4]: 2.9 (2.4)
- Mental limitation to resume activity, verbal analog score, mean (SD) [1, 4]: 0.6 (1.6)
- Operative distress, point value ([1]; postoperatively, modafinil 200 mg): 11.3±9.1
- Appetite, verbal analog score, mean (SD) [1, 5]: 7.9 (2.9)
- Ease of sleep, verbal analog score, mean (SD) [1, 5]: 6.5 (3.3)
- Energy, verbal analog score, mean (SD) [1, 5]: 7.5 (2.8)
- Exhaustion, verbal analog score, mean (SD) [1, 5]: 2.2 (3.3)
- Fatigue, verbal analog score, mean (SD) [1, 5]: 1.6 (2.7)
- Nausea, verbal analog score, mean (SD) [1, 5]: 0.6 (2.4)
- Reading ability, verbal analog score, mean (SD) [1, 5]: 9.0 (2.1)
- Restless, verbal analog score, mean (SD) [1, 5]: 4.5 (3.7)
- Tense, verbal analog score, mean (SD) [1, 5]: 5.4 (3.6)
- Worn out, verbal analog score, mean (SD) [1, 5]: 3.5 (3.4)
- Operative distress, point value ([1]; preoperatively, modafinil group): 10.5±6.0
- Fatigue, % with rating > 3 [1, 6]: 18%
- Fatigue, % with rating ≧ 5 [1, 6]: 12%
- Worn out, % with rating > 3 [1, 6]: 41%
- Worn out, % with rating ≧ 5 [1, 6]: 29%
- Fatigue and confusion in sleep-deprived pilots (sleep-deprived pilots): reduce fatigue and confusion
- Daytime wakefulness [2]: significantly improve daytime wakefulness
- Effect on nighttime sleep [2]: without affecting nighttime sleep
